Reference: BindingDB's records for doi:10.1021/jm300601d (Boehringer Ingelheim Pharmaceuticals, 2012)

assay: Inhibition of NHE1 in human platelet rich plasma assessed as reduction of propionate medium induced platelet swelling measured every 6 secs for 5 mins

Structure (SMILES) | EC50 [nM]
N=C(N)NC(=O)c1ccc(C2CCN(C(=O)c3ccc(S(N)(=O)=O)cc3)CC2)c(C(F)(F)F)c1 | 23
N=C(N)NC(=O)c1ccc(N2CCC(NC(=O)c3ccc[nH]3)C2)c(C(F)(F)F)c1 (centres undefined) | 1590
CS(=O)(=O)c1ccc(C(=O)N2CCC(c3ccc(C(=O)NC(=N)N)cc3C(F)(F)F)CC2)cc1 | 93
N=C(N)NC(=O)c1ccc(C2CCN(C(=O)c3cccc(-c4cnco4)c3)CC2)c(C(F)(F)F)c1 | 353
CCC(=O)N1CCC(c2ccc(C(=O)NC(=N)N)cc2S(C)(=O)=O)CC1 | 266
N=C(N)NC(=O)c1ccc(C2CCN(C(=O)c3ccc(C(F)(F)F)cc3)CC2)c(C(F)(F)F)c1 | 539
CN(C)C(=O)c1ccc(C(=O)N2CCC(c3ccc(C(=O)NC(=N)N)cc3C(F)(F)F)CC2)cc1 | 77
CNC(=O)c1ccc(C(=O)N2CCC(c3ccc(C(=O)NC(=N)N)cc3C(F)(F)F)CC2)cc1 | 214
CCC(=O)N1CCC(c2cc(C)c(C(=O)NC(=N)N)cc2S(C)(=O)=O)CC1 | 88
CC(=O)N1CCC(c2cc(C)c(C(=O)NC(=N)N)cc2C(F)(F)F)CC1 | 28
CC(=O)N1CCC(c2cc(C)c(C(=O)NC(=N)N)cc2S(C)(=O)=O)CC1 | 56
CN(C)S(=O)(=O)c1ccc(C(=O)N2CCC(c3ccc(C(=O)NC(=N)N)cc3C(F)(F)F)CC2)cc1 | 241
N=C(N)NC(=O)c1ccc(C2CCN(C(=O)c3ccc(-c4cnco4)cc3)CC2)c(C(F)(F)F)c1 | 368
CC(=O)N1CCC(c2ccc(C(=O)NC(=N)N)cc2S(C)(=O)=O)CC1 | 189
N=C(N)NC(=O)c1ccc(N2CCCC(NC(=O)c3ccc[nH]3)C2)c(C(F)(F)F)c1 (centres undefined) | 3480
CS(=O)(=O)c1cccc(C(=O)N2CCC(c3ccc(C(=O)NC(=N)N)cc3C(F)(F)F)CC2)c1 | 50
N#Cc1ccc(C(=O)N2CCC(c3ccc(C(=O)NC(=N)N)cc3C(F)(F)F)CC2)cc1 | 152
N=C(N)NC(=O)c1ccc(N2CCN(C(=O)c3ccc[nH]3)CC2)c(C(F)(F)F)c1 [SABIPORIDE] | 172
CS(=O)(=O)c1ccccc1C(=O)N1CCC(c2ccc(C(=O)NC(=N)N)cc2C(F)(F)F)CC1 | 269
N=C(N)NC(=O)c1ccc(N2CCC(NC(=O)c3ccc[nH]3)CC2)c(C(F)(F)F)c1 | 950
N=C(N)NC(=O)c1ccc(C2CCN(C(=O)c3ccc(C(N)=O)cc3)CC2)c(C(F)(F)F)c1 | 36
COc1cc(C2CCN(C(C)=O)CC2)c(C(F)(F)F)cc1C(=O)NC(=N)N | 432
CNS(=O)(=O)c1ccc(C(=O)N2CCC(c3ccc(C(=O)NC(=N)N)cc3C(F)(F)F)CC2)cc1 | 88
N=C(N)NC(=O)c1ccc(C2CCN(C(=O)C3CCCC3)CC2)c(C(F)(F)F)c1 | 416

The remaining lines, values ahead:

EC50 [nM] | Structure (SMILES)
498 | COc1ccc(C(=O)N2CCC(c3ccc(C(=O)NC(=N)N)cc3C(F)(F)F)CC2)cc1
70 | N=C(N)NC(=O)c1ccc(C2CCN(C(=O)c3ccncc3)CC2)c(C(F)(F)F)c1
241 | N=C(N)NC(=O)c1ccc(C2CCN(C(=O)c3ccc[nH]3)CC2)c(C(F)(F)F)c1
201 | CCCC(=O)N1CCC(c2ccc(C(=O)NC(=N)N)cc2C(F)(F)F)CC1
62 | Cn1cncc1C(=O)N1CCC(c2ccc(C(=O)NC(=N)N)cc2C(F)(F)F)CC1
25 | N=C(N)NC(=O)c1ccc(C2CCN(C(=O)c3ccc(=O)[nH]c3)CC2)c(C(F)(F)F)c1
79 | N=C(N)NC(=O)c1ccc(C2CCN(C(=O)c3ccccn3)CC2)c(C(F)(F)F)c1
111 | Cn1ccnc1C(=O)N1CCC(c2ccc(C(=O)NC(=N)N)cc2C(F)(F)F)CC1
184 | N=C(N)NC(=O)c1ccc(C2CCN(C(=O)c3ccc(F)cc3)CC2)c(C(F)(F)F)c1
1130 | N=C(N)NC(=O)c1ccc(C2CCN(C(=O)c3ccc(Cl)cc3)CC2)c(C(F)(F)F)c1
32 | N=C(N)NC(=O)c1ccc(C2CCN(C(=O)c3cccnc3)CC2)c(C(F)(F)F)c1
221 | CC(C)CC(=O)N1CCC(c2ccc(C(=O)NC(=N)N)cc2C(F)(F)F)CC1
127 | CC(C)(C)C(=O)N1CCC(c2ccc(C(=O)NC(=N)N)cc2C(F)(F)F)CC1
31 | CCC(=O)N1CCC(c2ccc(C(=O)NC(=N)N)cc2C(F)(F)F)CC1
169 | N=C(N)NC(=O)c1ccc(C2CCN(C(=O)c3ccc(-n4ccnc4)cc3)CC2)c(C(F)(F)F)c1
111 | N#Cc1cccc(C(=O)N2CCC(c3ccc(C(=O)NC(=N)N)cc3C(F)(F)F)CC2)c1
200 | N#Cc1ccccc1C(=O)N1CCC(c2ccc(C(=O)NC(=N)N)cc2C(F)(F)F)CC1
495 | N=C(N)NC(=O)c1ccc(C2CCN(C(=O)c3ccccc3Cl)CC2)c(C(F)(F)F)c1
115 | Cc1cc(C(=O)N2CCC(c3ccc(C(=O)NC(=N)N)cc3C(F)(F)F)CC2)nn1C
109 | N=C(N)NC(=O)c1ccc(C2CCN(C(=O)c3ccccc3)CC2)c(C(F)(F)F)c1
50 | N=C(N)NC(=O)c1ccc(C2CCN(C(=O)C3CC3)CC2)c(C(F)(F)F)c1
48 | COCC(=O)N1CCC(c2ccc(C(=O)NC(=N)N)cc2C(F)(F)F)CC1
138 | N=C(N)NC(=O)c1ccc(C2CCN(C(=O)c3ccc(O)cc3)CC2)c(C(F)(F)F)c1
79 | CC(C)C(=O)N1CCC(c2ccc(C(=O)NC(=N)N)cc2C(F)(F)F)CC1
989 | N=C(N)NC(=O)c1ccc(C2CCN(C(=O)c3cccc(Cl)c3)CC2)c(C(F)(F)F)c1
